Patent US20250002854A1, “METHODS OF GENERATING POPULATIONS OF TUMOUR-INFILTRATING T CELLS” (LYTIX BIOPHARMA AS, priority 2016, published 2025)
Square brackets hold non-standard residues; d marks the D form. Ends that are not written are not given here. Dip = N[C@H](C(=O)O)C(c1ccccc1)c1ccccc1

What was measured:
[1] = tested on: B16F1 cells; assay: Release of HMGB1 (Western blot); type: cell-based, murine; conditions: 108 μM
Method: B16F1 cells were seeded at a density of 2×10^5 cells/well in 6-well plates in a complete medium, and allowed to adhere overnight. Cells were treated with 108 μM of LTX-401 (4×IC50^4h), and incubated at 37° C. (>95% humidity and 5% CO2) for different time points (10, 30, 60, 90 and 120 minutes). Serum-free RPMI 1640 was used as a negative control, and supernatants (S) were collected and centrifuged at 1,400 g for 5 min before being up-concentrated using Amicon Ultra-0.5 Centrifugal Filter units with Ultracel-50 membrane (Milipore, Norway). Cell lysates (L) were harvested after washing with 2 mL of serum-free RPMI-1640 and subjected to a lysis buffer (mastermix) containing 2×NuPAGE LDS Sample buffer (Invitrogen, Norway), a 1×NuPAGE Sample Reducing Agent (Invitrogen, Norway) and 50% sterile H20. Both supernatants and lysates were boiled at 70° C. for 10 min and resolved on NuPAGE Novex 4-12% Bis-Tris Gels (Millipore, Norway) before being electrotransferred to a polyvindiline difluoride (PVDF) membrane (Millipore, Norway). […]

[2] = tested on: A375 cells; assay: Confocal microscopy, internalization of fluorescence-labeled peptide; type: cell-based, human
Method: The A375 cell line A375 (ECACC, 88113005) is a human malignant melanoma derived from patient material, and was purchased from Public Health England (PHE Culture Collections, Porton Down, Salisbury, UK). Cells were maintained as monolayer cultures in high glucose […] DMEM supplemented with 10% FBS and 1% L-glutamine, but not as antibiotics (complete media). The cell line was grown in a humidified 5% CO2 atmosphere at 37° C., and was regularly tested for the presence of mycoplasma with MycoAlert (Lonza).
Fixed cells, fluorescence-labeled peptide—Subconfluential A375 cells were seeded at 8,000 cells/well as above, and transfected on the second day using the Lipofectamine LTX with Plus transfection reagents (Invitrogen) following the manufacturer's protocol. The mitochondria were labeled using the pDsRed2-Mito, and the nucleus was labeled using the GFP-Histon2B plasmid (Imaging Platform, University of Tromsø). A day after transfection, cells were washed twice with serum-free RPMI, and treated at different concentration and incubation periods with LTX-315 Pacific Blue or LTX-328 Pacific Blue. […] Control cells were treated with unlabeled LTX-315 and also with serum-free RPMI only. After incubation, cells were fixed with 4% paraformaldehyde in PBS, and the wells were covered with Prolong Gold antifade (Invitrogen). Cells were further analyzed by use of a Leica TCS SP5 confocal microscope, with a […] objective. Pacific Blue, GFP and Ds Red were excited using UV, with 488 and 561 lasers, and fluorescence channels were sequentially detected using the following band passes: UV: 420-480 nm (with attenuation), 488: 501-550 nm and 561: 576-676 nm.

[3] = tested on: Murine B16 melanoma; assay: immunoSEQ TCR repertoire characterisation after intratumoural LTX-315; type: in vivo, mice
Method: This study was carried out using an “immunoSEQ™” T cell receptor (TCR) repertoire characterisation platform by Adaptive Biotechnologies™. The platform combines novel multiplex PCR1 with highly optimized primer sets and deep sequencing techniques that exclusively target TCR genes. The immunoSEQ platform enables researchers to analyse the adaptive immune system with exceptional depth and specificity.
Murine B16 melanoma cells were harvested, washed and injected intradermally in ten mice. 8 days after tumour injection, peptide treatment was initiated using single intratumoural injections of LTX-315 (1.0 mg LTX-315/50 μl saline) once or twice in five mice. Vehicle control of saline only (0.9% NaCl in sterile H2O) was administered to the other five mice. Animals were then euthanized on day 15.
Tumour tissue (10 mg) and whole blood (150-200 μl) was taken from each mouse for TCR repertoire characterisation analysis. Blood samples provide information regarding the immune repertoire in the periphery, whilst the tumour samples provide a focused view of the repertoire.
Sequence analysis was carried out by Adaptive Biotechnologies™ at a survey-level resolution with respect to the tissue samples and at a deep-level resolution with respect to the blood samples.
Clonality quantitates the extent of mono-or oligoclonal expansion by measuring the shape of the clone frequency distribution. Values range from 0 to 1, where values approaching 1 indicate a nearly monoclonal population. FIG. 15 provides example distribution curves of populations with a clonality of 0.05 (A) and of 0.32 (B).

[4] = tested on: rat transformed mesenchymal stem cell-derived sarcoma (rTMSC); assay: Immunohistochemistry of rat rTMSC tumours; type: in vivo; conditions: primary and secondary tumor tissues
Method: Pre-cultured rat transformed mesenchymal stem cell-derived sarcoma model cells (rTMSCs) were harvested in serum free RPMI-1640 and 200,000 rTMSCs were subcutaneously inoculated in the right flank into PVG rats on day ÷2 and 20,000 rTMSCs in the opposite flank on day 0. Established tumours (25 mm^2 mean tumour size) were injected intralesionally with LTX-315 (dissolved in sterile H2O with 0.9% NaC ) (n=8) or with vehicle (sterile H2O with 0.9% NaCl) (n=6). Treatment doses of LTX-315, 50 μl at […] (1 mg), were given using a 1 ml syringe (Myjector U-100, Terumo) needle 0.5×16 mm (Fine-Ject; Henke-Sass, Wolf GmbH. Injections were provided daily for three subsequent days. Tumour size was measured three times a week using a caliper and expressed as the area of an ellipse [(maximum dimension/2)×(minimum dimension/2)]. Animals were terminated when the tumor exceeded 400 mm^2.
Formalin-fixed and paraffin-embedded tissue sections were deparaffinized in xylene and graded alcohols, hydrated and washed in PBS. After antigen retrieval in sodium citrate buffer (pH 6) in a microwave oven, the endogenous peroxidase was blocked by 0.3% H2O2 for 15 min. Sections were incubated overnight at 4° C. with primary antibody; rabbit polyclonal anti-CD3 (clone A0452 Dako) or mouse monoclonal anti-CD8 (clone OX8, ab33786, Abcam). […]

Molecule | time at which HMGB1 translocation was absolute [1] | time at which release of HMGB1 occurs [1] | accumulation of labelled peptide around the mitochondria ([2]; 1.5 μM, 30 minutes) | detection of labelled peptide in the cell nucleus ([2]; 1.5 μM, 30 minutes) | internalization of peptide ([2]; 3 μM, 60 min) | internalization of Pacific Blue-labelled peptide ([2]; A375 cells, 3 μM and 1.5 μM) | TCR Template Molecules ([3]; Blood) | TCRs (T cell estimate) per nucleated cell (%) ([3]; Blood) | Unique TCRs ([3]; Blood) | TCR Template Molecules ([3]; Tissue (tumour)) | infiltration of CD3+ and CD8+ cells (immunohistochemistry) [4]
Cl.Cl.NCCNC(=O)C(CN)(CCCc1ccccc1)CCCc1ccccc1 [LTX-401] | 90 min | 30 min | – | – | – | – | – | – | – | – | –
K-K-W-W-K-K-W-Dip-K-NH2 (KKWWKKW[Dip]K-NH2) [LTX-315] | – | – | showed an accumulation around the mitochondria | not detected in the cell nucleus | detected in the cytoplasm | rapidly penetrated the plasma membrane | 135,283 | 17.4% | 116,120 | 12,331 | increased infiltration of CD3^+ and CD8^+ cells
